Data from patent publication US7345073B2, “Method for treating cryptorchidism” (Hormos Medical Ltd., priority 2003, dated 2008).

Key:
[1] = system: Aromatase over expressing mice AROM+ (line 021); test: Testes descent (palpation and opening the animal) after six weeks of p.o. treatment, AROM+ mice; format: in vivo, mouse; conditions: AROM+ (021) male mice, ten mice; finrozole 10 mg/kg p.o. daily for six weeks
Procedure: (§1) The aromatase inhibitor finrozole {MPV-2213ad (10695U, without purification, Hormos Medical Ltd.} was the test compound. Vehicle (CMC-solution) was used as control substance. CMC-solution was prepared as follows: 0.25 g carboxylmethylcellulosa (CMC) (lot. 939512, Tamro OYJ) was weighed and solubilized in 50 ml of deionized (Milli-Q) water. The solution was prepared once a week and stored at +4° C. The dose level of finrozole 10 mg/kg dose level was used. The vehicle-test/control-solution, which was given to the test animals, was prepared daily as follows: the appropriate amount of finrozole was weighed in a transparent glass mortar. A few drops of vehicle were added and the mixture was thoroughly mixed. After this ⅓ of the final volume of vehicle was added to the mortar and placed into an ultrasonic incubator for five minutes. This procedure was done total of three times to reach the final volume.
(§2) Aromatase over expressing mice AROM^+ were used in this study. The mice were maintained under standard laboratory conditions at 12:12 light/dark cycle, and received free access to soyfree pelleted food (SDS, Witham, Essex, UK), and tap water.
We have generated a transgenic mouse model bearing the human ubiquitin C promoter/human P450 aromatase fusion gene (AROM^+). […] The AROM^+ males present with a multitude of severe structural and functional abnormalities of the reproductive system, such as cryptochidism, dysmorphic semiferous tubules and disrupted spermatogenesis. The males also have small or rudimentary accessory sex glands with abnormal morphology, a prominent prostatic utricle with squamous epithelial metaplasia, and abnormal morphology of ejaculatory duct and vas deferens. In addition, the abdominal wall muscle layer is thin, and the adrenals are enlarged with cortical hyperplasia. […] Some of the disorders in reproductive system, furthenmore, can be explained by the fact that the AROM^+ males are hypo-androgenic. […]

[2] = system: Aromatase over expressing mice AROM+ (line 021); test: Relative testes weights (testes weight/animal weight), AROM+ mice; format: in vivo, mouse; conditions: AROM+ (021) mice, n = 10; finrozole 10 mg/kg p.o. daily for six weeks; SD 0.0003
Procedure: as §1, §2
We have generated a transgenic mouse model bearing the human ubiquitin C promoter/human P450 aromatase fusion gene (AROM^+). […]

wild type FVB/N mice [3] = test: Relative testes weights (testes weight/animal weight), wild type mice; format: in vivo, mouse; conditions: n = 7, finrozole 10 mg/kg p.o. daily for six weeks, SD 0.0003
Procedure: as §1
(§3) In the experiment there was […] different kind of groups of male mice, ten animals in each group. One control group (wild type FVB/N) received vehicle, as well as the other control (021 line) group. The last groups were treated with finrozole (10 mg/kg).
(§4) The dosing (4 ml solution/kg) of the animals took place p.o. daily for six weeks. On Saturdays, however, double dose of the test compounds was given to animals. On sundays there was no treatment.
(§5) The trial was conducted in total of 39 mice. […]

wild type FVB/N mice [4] = test: Testes descent (palpation and opening the animal) after six weeks of p.o. treatment, wild type mice; format: in vivo, mouse; conditions: wild type FVB/N male mice, nine mice; finrozole 10 mg/kg p.o. daily for six weeks
Procedure: as §1, §3, §4, §5

[5] = system: cryptorchidism (non-descended testes); conditions: according to one study; cited from earlier work

| Compound | Number of descended testes [1] | Number of partly descended testes [1] | Number of undescended testes [1] | Relative testes weights (testes weight/animal weight) [2] | Relative testes weights (testes weight/animal weight) (wild type FVB/N mice [3]) | Number of descended testes (wild type FVB/N mice [4]) | efficacy in cases of true non-descended testes [5] |
| --- | --- | --- | --- | --- | --- | --- | --- |
| N#Cc1ccc(C(C(O)Cc2ccc(F)cc2)n2cncn2)cc1 (single isomer, unassigned) [finrozole, 1-[1-(4-cyanophenyl)-3-(4-fluorophenyl)-2-hydroxypropyl]-1,2,4-triazole, diasteroisomer a+d] | 17 | 2 | 1 | 0.0033 | 0.0027 | 18 |  |
| LHRH: lutenizing-hormone releasing hormone, hormonal treatment of cryptorchidism (QHWSYGLRPG; Gonadoliberin-1; UniProt P01148 24-33, looked up) |  |  |  |  |  |  | ineffective |
